Test results taken from patent publication US20260184707A1, “PHARMACEUTICAL COMPOUNDS FOR THE TREATMENT OF COMPLEMENT MEDIATED DISORDERS” (ALEXION PHARMACEUTICALS, INC., priority 2022, published 2026).

Biological target: T1, Human complement C1s enzyme (Homo sapiens, UniProt P09871)
T1 construct: purified from human serum, Complement Technology, Inc; purchased Complement Technology, Inc; host or cells: human serum (plasma-derived native protein)
T1 sequence (P09871 438-688 limits assumed): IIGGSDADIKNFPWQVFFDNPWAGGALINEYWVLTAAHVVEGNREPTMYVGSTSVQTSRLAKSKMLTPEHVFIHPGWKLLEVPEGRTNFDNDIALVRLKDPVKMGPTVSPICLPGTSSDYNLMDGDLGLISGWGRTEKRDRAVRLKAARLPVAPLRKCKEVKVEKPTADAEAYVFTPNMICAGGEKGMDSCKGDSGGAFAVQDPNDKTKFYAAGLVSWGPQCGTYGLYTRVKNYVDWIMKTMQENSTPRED
T1 sequence (P09871 16-437 partner limits assumed): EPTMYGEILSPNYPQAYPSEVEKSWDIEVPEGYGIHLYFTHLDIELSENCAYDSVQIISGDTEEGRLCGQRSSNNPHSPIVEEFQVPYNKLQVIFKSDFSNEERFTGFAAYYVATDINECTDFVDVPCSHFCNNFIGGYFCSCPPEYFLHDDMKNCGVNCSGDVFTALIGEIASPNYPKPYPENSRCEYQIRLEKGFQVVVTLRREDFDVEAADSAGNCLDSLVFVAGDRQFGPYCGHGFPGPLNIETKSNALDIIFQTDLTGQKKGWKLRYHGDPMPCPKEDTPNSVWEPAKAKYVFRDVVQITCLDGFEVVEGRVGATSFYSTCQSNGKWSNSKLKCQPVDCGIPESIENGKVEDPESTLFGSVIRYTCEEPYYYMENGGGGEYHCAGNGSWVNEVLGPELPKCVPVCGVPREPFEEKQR
Test: Human C1s enzyme assay
Type: biochemical
Conditions: human complement C1s enzyme 1.16 nM, substrate Z-L-Lys-SBzl, A405; read-out: IC50 (Stars)
Summary of the method: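 Thioesterase activity followed colorimetrically (DTNB, A405, 30-s reads) using 100 μM Z-L-Lys-SBzl substrate. Enzyme, human serum-derived C1s at 1.16 nM final, was incubated with test compound for 5 min, room temperature, pH 7.5 Tris buffer with 1 M NaCl. Rate-versus-concentration data fitted by nonlinear regression for IC50.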

Q: Cc1nc(-c2ccccc2)n(CC(=O)NCc2cc3cnccc3[nH]2)c(=O)c1N[C@H](C)c1ccc2oc3ccccc3c2c1 [Compound 336, (R)—N-((1H-pyrrolo[3,2-c]pyridin-2-yl)methyl)-2-(5-((1-(dibenzo[b,d]furan-2-yl)ethyl)amino)-4-methyl-6-oxo-2-phenylpyrimidin-1(6H)-yl)acetamide] was tested. Which IC50 did it give?
A: Its IC50 is under 100 nM.

Q: Cc1nc(-c2ccccc2)n(CC(=O)NCc2cc3cnccc3[nH]2)c(=O)c1NCc1ccc2oc3ccccc3c2c1 [Compound 337, N-((1H-pyrrolo[3,2-c]pyridin-2-yl)methyl)-2-(5-((dibenzo [b,d]furan-2-ylmethyl)amino)-4-methyl-6-oxo-2-phenylpyr-imidin-1(6H)-yl)acetamide] was tested. Which IC50 did it give?
A: Its IC50 is under 100 nM.

Q: C[C@@H](Nc1c[nH]c(=O)n(CC(=O)NCc2cc3cnccc3[nH]2)c1=O)c1ccc2oc3ccccc3c2c1 [Compound 338, (R)-N-((1H-pyrrolo[3,2-c]pyridin-2-yl)methyl)-2-(5-((1-(dibenzo[b,d]furan-2-yl)ethyl)-amino)-2,6-dioxo-3,6-dihydro-pyrimidin-1(2H)-yl)acetamide] was tested. Which IC50 did it give?
A: The IC50 was 100 to 1000 nM.

Q: Which IC50 does the source give for C[C@@H](Nc1cnc(-c2cscn2)n(CC(=O)NCc2cc3cnccc3[nH]2)c1=O)c1ccc2oc3ccccc3c2c1 [Compound 339, (R)-N-((1H-pyrrolo[3,2-c]pyridin-2-yl)methyl)-2-(5-((1-(dibenzo[b,d]furan-2-yl)ethyl)-amino)-6-oxo-2-(thiazol-4-yl)-pyrimidin-1(6H)-yl)acetamide] here?
A: The IC50 was under 100 nM.

Q: For C[C@@H](Nc1cnc(-c2nccs2)n(CC(=O)NCc2cc3cnccc3[nH]2)c1=O)c1ccc2oc3ccccc3c2c1 [Compound 340, (R)-N-((1H-pyrrolo[3,2-c]pyridin-2-yl)methyl)-2-(5-((1-(dibenzo[b,d]furan-2-yl)ethyl)-amino)-6-oxo-2-(thiazol-2-yl)-pyrimidin-1(6H)-yl)acetamide], which IC50 is on record?
A: Its IC50 is 100 to 1000 nM.

Q: How did the IC50 turn out when CC(C)c1ncc(N[C@H](C)c2ccc3oc4ccccc4c3c2)c(=O)n1CC(=O)NCc1cc2cnccc2[nH]1 [Compound 341, (R)—N-((1H-pyrrolo[3,2-c]pyridine-2-yl)methyl)-2-(5-((1-(dibenzo[b,d]furan-2-yl)ethyl)amino)-2-isopropyl-6-oxopyrimidin-1(6H)-yl)acetamide] was run?
A: The IC50 was 100 to 1000 nM.

Q: For C[C@@H](Nc1cnc(C2CC2)n(CC(=O)NCc2cc3cnccc3[nH]2)c1=O)c1ccc2oc3ccccc3c2c1 [Compound 342, (R)-N-((1H-pyrrolo[3,2-c]pyridin-2-yl)methyl)-2-(2-cyclopropyl-5-((1-(dibenzo [b,d]furan-2-yl)ethyl)amino)-6-oxo-pyrimidin-1(6H)-yl)-acetamide], which IC50 is on record?
A: The IC50 was 100 to 1000 nM.

Q: With C[C@@H](Nc1cnc(OC2CC2)n(CC(=O)NCc2cc3cnccc3[nH]2)c1=O)c1ccc2oc3ccccc3c2c1 [Compound 343, (R)—N-((1H-pyrrolo[3,2-c]pyridine-2-yl)methyl)-2-(2-cyclopropoxy-5-((1-(dibenzo[b,d]furan-2-yl)ethyl)amino)-6-oxopyrimidin-1(6H)-yl)acetamide] as the compound, how does the IC50 read?
A: Its IC50 is 100 to 1000 nM.

Q: For C[C@@H](Nc1cnc(N2CCOCC2)n(CC(=O)NCc2cc3cnccc3[nH]2)c1=O)c1ccc2oc3ccccc3c2c1 [Compound 344, (R)-N-((1H-pyrrolo[3,2-c]pyridin-2-yl)methyl)-2-(5-((1-(dibenzo[b,d]furan-2-yl)ethyl)-amino)-2-morpholino-6-oxo-pyrimidin-1(6H)-yl)acetamide], which IC50 is on record?
A: Its IC50 is under 100 nM.

Q: With C[C@@H](Nc1cnc(-c2ccc(S(F)(F)(F)(F)F)cc2)n(CC(=O)NCc2cc3cnccc3[nH]2)c1=O)c1ccc2oc3ccccc3c2c1 [Compound 345, (R)-N-((1H-pyrrolo[3,2-c]pyridin-2-yl)methyl)-2-(5-((1-(dibenzo[b,d]furan-2-yl)ethyl)-amino)-6-oxo-2-(4-(penta-fluoro-lambda6-sulfaneyl)-phenyl)pyrimidin-1(6H)-yl)-acetamide] as the compound, how does the IC50 read?
A: Its IC50 is under 100 nM.

Q: For C[C@@H](Nc1cncn(CC(=O)NCc2cc3cnccc3[nH]2)c1=O)c1ccc2c(c1)-c1ccccc1C2(F)F [Compound 346, (R)-N-((1H-pyrrolo[3,2-c]pyridin-2-yl)methyl)-2-(5-((1-(9,9-difluoro-9H-fluoren-3-yl)-ethyl)amino)-6-oxopyrimidin-1(6H)-yl)acetamide], which IC50 is on record?
A: Its IC50 is 100 to 1000 nM.

Q: Which IC50 does the source give for C[C@@H](Nc1cnc(-c2ccccc2)n(CC(=O)NCc2cc3cnccc3[nH]2)c1=O)c1coc(-c2ccccc2)n1 [Compound 347, (R)-N-((1H-pyrrolo[3,2-c]pyridin-2-yl)methyl)-2-(6-oxo-2-phenyl-5-((1-(2-phenyloxa-zol-4-yl)ethyl)amino)pyrimi-din-1(6H)-yl)acetamide] here?
A: The IC50 was under 100 nM.

Q: For C[C@@H](Nc1ncc(-c2ccccc2)n(CC(=O)NCc2cc3cnccc3[nH]2)c1=O)c1ccc2oc3ccccc3c2c1 [Compound 348, (R)-N-((1H-pyrrolo[3,2-c]pyridin-2-yl)methyl)-2-(3-((1-(dibenzo[b,d]furan-2-yl)ethyl)-amino)-2-oxo-6-phenylpyr-azin-1(2H)-yl)acetamide], which IC50 is on record?
A: The IC50 was under 100 nM.

Q: Cc1cnc(N[C@H](C)c2ccc3oc4ccccc4c3c2)c(=O)n1CC(=O)NCc1cc2cnccc2[nH]1 [Compound 349, (R)-N-((1H-pyrrolo[3,2-c]pyridin-2-yl)methyl)-2-(3-((1-(dibenzo[b,d]furan-2-yl)ethyl)-amino)-6-methyl-2-oxopyr-azin-1(2H)-yl)acetamide] was tested. Which IC50 did it give?
A: Its IC50 is under 100 nM.

Q: How did the IC50 turn out when C[C@@H](Nc1cnc(-c2ccccc2F)n(CC(=O)NCc2cc3cnccc3[nH]2)c1=O)c1ccc2c(c1)oc1ccccc12 [Compound 350, (R)—N-((1H-pyrrolo[3,2-c]pyridine-2-yl)methyl)-2-(5-((1-(dibenzo[b,d]furan-3-yl)ethyl)amino)-2-(2-fluorophenyl)-6-oxopyrimidin-1(6H)-yl)acetamide] was run?
A: The IC50 was under 100 nM.

Q: For C[C@@H]1CN(c2ncc(N[C@H](C)c3ccc4oc5ccccc5c4c3)c(=O)n2CC(=O)NCc2cc3cnccc3[nH]2)C[C@@H](C)O1 [Compound 355, N-((1H-pyrrolo[3,2-c]pyridin-2-yl)methyl)-2-(5-(((R)-1-(dibenzo[b,d]furan-2-yl)ethyl)-amino)-2-((2R,6R)-2,6-dimeth-ylmorpholino)-6-oxopyrimidin-1(6H)-yl)acetamide], which IC50 is on record?
A: Its IC50 is 100 to 1000 nM.

Q: For Cc1ccccc1-c1ncc(N[C@H](C)c2ccc3oc4ccccc4c3c2)c(=O)n1CC(=O)NCc1cc2cnccc2[nH]1 [Compound 356, 2-[5-[[(1R)-1-dibenzofuran-2-ylethyl]amino]-2-(o-tolyl)-6-oxo-pyrimidin-1-yl]-N-(1H-pyrrolo[3,2-c]pyridine-2-ylmethyl)acetamide], which IC50 is on record?
A: The IC50 was over 1000 nM.

Q: C[C@@H](Nc1cnc(-c2cncs2)n(CC(=O)NCc2cc3cnccc3[nH]2)c1=O)c1ccc2oc3ccccc3c2c1 [Compound 358, (R)-N-((1H-pyrrolo[3,2-c]pyridin-2-yl)methyl)-2-(5-((1-(dibenzo[b,d]furan-2-yl)ethyl)-amino)-6-oxo-2-(thiazol-5-yl)-pyrimidin-1(6H)-yl)acetamide] was tested. Which IC50 did it give?
A: The IC50 was under 100 nM.

Q: Which IC50 does the source give for C[C@@H](Nc1cnc(-c2ccccc2)n(CC(=O)NCc2cc3cnccc3[nH]2)c1=O)c1ccc2c(c1)-c1ccccc1C2(F)F [Compound 359, (R)-N-((1H-pyrrolo[3,2-c]pyridin-2-yl)methyl)-2-(5-((1-(9,9-difluoro-9H-fluoren-3-yl)-ethyl)amino)-6-oxo-2-phenyl-pyrimidin-1(6H)-yl)acetamide] here?
A: Its IC50 is under 100 nM.

Q: For C[C@@H](Nc1cnc(-c2cn[nH]c2)n(CC(=O)NCc2cc3cnccc3[nH]2)c1=O)c1ccc2oc3ccccc3c2c1 [Compound 360, (R)—N-((1H-pyrrolo[3,2-c]pyridin-2-yl)methyl)-2-(5-((1-(dibenzo[b,d]furan-2-yl)ethyl)amino)-6-oxo-2-(1H-pyrazol-4-yl)pyrimidin-1(6H)-yl)acetamide], which IC50 is on record?
A: The IC50 was under 100 nM.

Q: C[C@@H](Nc1cnc(N2CCCCC2)n(CC(=O)NCc2cc3cnccc3[nH]2)c1=O)c1ccc2oc3ccccc3c2c1 [Compound 361, (R)-N-((1H-pyrrolo[3,2-c]pyridin-2-yl)methyl)-2-(5-((1-(dibenzo[b,d]furan-2-yl)ethyl)-amino)-6-oxo-2-(piperidin-1-yl)pyrimidin-1(6H)-yl)acet-amide] was tested. Which IC50 did it give?
A: The IC50 was under 100 nM.

Q: How did the IC50 turn out when C[C@@H](Nc1cncn(CC(=O)NCc2cc3cnccc3[nH]2)c1=O)c1coc(-c2ccccc2)n1 [Compound 362, (R)-N-((1H-pyrrolo[3,2-c]pyridin-2-yl)methyl)-2-(6-oxo-5-((1-(2-phenyloxazol-4-yl)-ethyl)amino)pyrimidin-1(6H)-yl)acetamide] was run?
A: The IC50 was 100 to 1000 nM.

Q: COCc1ncc(N[C@H](C)c2ccc3oc4ccccc4c3c2)c(=O)n1CC(=O)NCc1cc2cnccc2[nH]1 [Compound 365, (R)—N-((1H-pyrrolo[3,2-c]pyridine-2-yl)methyl)-2-(5-((1-(dibenzo[b,d]furan-2-yl)ethyl)amino)-2-(methoxymethyl)-6-oxopyrimidin-1(6H)-yl)acetamide] was tested. Which IC50 did it give?
A: The IC50 was 100 to 1000 nM.
